The values that follow come from patent publication US12485114B2, “Materials and methods useful to induce cancer cell death via methuosis or autophagy or a combination thereof” (The University of Toledo, priority 2017, dated 2025).

For one assay, the target named is T1, ABL1 T315I (Homo sapiens, UniProt P00519, T315I).
T1 construct: purchased DiscoverX (KINOMEscan)
Briefly: Kinome screening (DiscoverX) against 468 kinases. The class given is binding. As for the experimental part: (§1) FIG. 49A: Image showing the effect of Image was generated using TREEspot™ Software Tool and reprinted with permission from KINOMEscan®, a division of DiscoveRx Corporation, @ DISCOVERX CORPORATION 2010. Selectivity Score or S-score is a quantitative measure of compound selectivity. It was calculated by dividing the number of kinases that BAPT-27 bind to by the total number of distinct kinases tested, excluding mutant variants.

A further assay has as its target T2, JNK3 (Homo sapiens, UniProt P53779).
T2 construct: purchased DiscoverX (KINOMEscan)
Kind of assay: Kinome screening (DiscoverX) against 468 kinases. It is filed as binding. On the procedure:
as §1

Another assay concerns the target T3, DYRK1A (Homo sapiens, UniProt Q13627).
T3 construct: purchased DiscoverX (KINOMEscan)
Briefly: Kinome screening (DiscoverX) against 468 kinases. It is filed as binding. As for the experimental part:
as §1

Another assay has as its target T4, JNK1 (Homo sapiens, UniProt P45983).
T4 construct: purchased DiscoverX (KINOMEscan)
Kind of assay: Kinome screening (DiscoverX) against 468 kinases. It is filed as binding. On the procedure:
as §1

The test system of another assay is FLT3(ITD, D835V). Briefly: Kinome screening (DiscoverX) against 468 kinases. The class given is binding. On the procedure: as §1
Assay [1] deals with T5, phosphoinositide 5-kinase (PIKfyve) (Homo sapiens, UniProt Q9Y2I7).
T5 construct: purchased DiscoverX (KINOMEscan)
T5 sequence (Q9Y2I7 whole entry): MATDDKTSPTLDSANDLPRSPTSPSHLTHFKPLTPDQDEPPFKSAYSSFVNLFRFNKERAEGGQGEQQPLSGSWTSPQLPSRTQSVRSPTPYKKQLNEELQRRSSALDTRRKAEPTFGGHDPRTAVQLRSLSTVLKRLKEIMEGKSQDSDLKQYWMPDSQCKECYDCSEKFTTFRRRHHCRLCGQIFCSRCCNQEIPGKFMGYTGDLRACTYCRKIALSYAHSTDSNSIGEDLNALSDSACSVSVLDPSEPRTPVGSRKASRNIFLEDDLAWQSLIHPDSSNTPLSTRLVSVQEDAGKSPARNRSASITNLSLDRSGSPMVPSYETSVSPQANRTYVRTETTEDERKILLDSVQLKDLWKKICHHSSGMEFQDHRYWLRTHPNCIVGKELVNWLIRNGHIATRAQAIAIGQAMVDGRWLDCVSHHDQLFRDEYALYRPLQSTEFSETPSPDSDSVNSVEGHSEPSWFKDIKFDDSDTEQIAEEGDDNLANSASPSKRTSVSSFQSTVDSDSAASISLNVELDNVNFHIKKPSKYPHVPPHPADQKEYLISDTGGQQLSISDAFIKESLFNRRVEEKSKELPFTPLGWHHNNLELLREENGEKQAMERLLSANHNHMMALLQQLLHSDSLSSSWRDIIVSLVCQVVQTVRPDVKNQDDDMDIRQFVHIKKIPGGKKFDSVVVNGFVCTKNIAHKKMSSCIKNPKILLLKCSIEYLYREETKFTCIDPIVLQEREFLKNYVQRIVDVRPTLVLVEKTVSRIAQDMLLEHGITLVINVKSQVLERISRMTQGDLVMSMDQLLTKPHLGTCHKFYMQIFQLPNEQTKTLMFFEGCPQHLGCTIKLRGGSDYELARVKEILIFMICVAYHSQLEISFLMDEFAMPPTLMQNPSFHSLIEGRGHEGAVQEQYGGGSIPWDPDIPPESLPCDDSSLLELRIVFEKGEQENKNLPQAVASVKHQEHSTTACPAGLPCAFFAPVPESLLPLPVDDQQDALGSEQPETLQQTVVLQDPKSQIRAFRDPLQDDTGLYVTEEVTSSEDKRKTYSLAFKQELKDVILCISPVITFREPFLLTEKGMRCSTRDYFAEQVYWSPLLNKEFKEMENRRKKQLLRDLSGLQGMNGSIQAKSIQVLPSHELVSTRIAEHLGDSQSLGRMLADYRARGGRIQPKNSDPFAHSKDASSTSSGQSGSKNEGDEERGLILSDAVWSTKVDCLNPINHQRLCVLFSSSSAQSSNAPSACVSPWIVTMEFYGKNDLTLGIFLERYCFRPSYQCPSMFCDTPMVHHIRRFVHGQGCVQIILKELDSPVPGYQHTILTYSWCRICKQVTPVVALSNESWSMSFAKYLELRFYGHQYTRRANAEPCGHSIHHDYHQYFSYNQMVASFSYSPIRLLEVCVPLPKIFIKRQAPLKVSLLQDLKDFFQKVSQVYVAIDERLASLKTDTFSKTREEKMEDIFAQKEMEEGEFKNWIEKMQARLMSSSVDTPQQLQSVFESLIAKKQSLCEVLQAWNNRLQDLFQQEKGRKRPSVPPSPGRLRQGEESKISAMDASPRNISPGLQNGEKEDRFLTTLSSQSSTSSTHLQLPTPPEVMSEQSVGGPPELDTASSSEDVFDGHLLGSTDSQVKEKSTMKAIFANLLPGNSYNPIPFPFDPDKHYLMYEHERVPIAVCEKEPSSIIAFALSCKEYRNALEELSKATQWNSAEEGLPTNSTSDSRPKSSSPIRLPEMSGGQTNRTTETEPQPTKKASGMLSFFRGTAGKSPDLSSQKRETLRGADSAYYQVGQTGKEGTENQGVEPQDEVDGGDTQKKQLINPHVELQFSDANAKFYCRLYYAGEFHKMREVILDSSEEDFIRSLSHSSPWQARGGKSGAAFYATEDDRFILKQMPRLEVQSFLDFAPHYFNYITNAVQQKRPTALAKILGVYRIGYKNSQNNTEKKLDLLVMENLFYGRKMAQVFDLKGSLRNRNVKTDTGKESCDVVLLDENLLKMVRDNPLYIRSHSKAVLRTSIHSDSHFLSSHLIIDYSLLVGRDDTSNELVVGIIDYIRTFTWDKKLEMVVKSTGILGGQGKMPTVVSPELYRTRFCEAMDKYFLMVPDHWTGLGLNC
Briefly: Kinome screening (DiscoverX) against 468 kinases. It is filed as binding. On the procedure: as §1

The target of another assay is T6, JNK2 (Homo sapiens, UniProt P45984).
T6 construct: purchased DiscoverX (KINOMEscan)
T6 sequence (P45984 whole entry): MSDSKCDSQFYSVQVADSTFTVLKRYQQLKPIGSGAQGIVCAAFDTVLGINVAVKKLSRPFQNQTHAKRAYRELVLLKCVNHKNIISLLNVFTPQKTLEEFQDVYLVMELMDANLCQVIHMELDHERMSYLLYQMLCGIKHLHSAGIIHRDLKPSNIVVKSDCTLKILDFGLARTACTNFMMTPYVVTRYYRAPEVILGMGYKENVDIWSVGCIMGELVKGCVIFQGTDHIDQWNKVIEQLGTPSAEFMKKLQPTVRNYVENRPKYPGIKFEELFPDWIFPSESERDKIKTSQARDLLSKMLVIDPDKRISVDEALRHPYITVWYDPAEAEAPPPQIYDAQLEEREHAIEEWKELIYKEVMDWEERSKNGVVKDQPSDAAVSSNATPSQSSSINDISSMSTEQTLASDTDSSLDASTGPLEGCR
Kind of assay: Kinome screening (DiscoverX) against 468 kinases. It is filed as binding. As for the experimental part: as §1

In another assay the target is T7, FLT3(D835V) (Homo sapiens, UniProt P36888, D835V).
T7 construct: purchased DiscoverX (KINOMEscan)
Kind of assay: Kinome screening (DiscoverX) against 468 kinases. It is filed as binding. On the procedure: as §1

The subject of another assay is HCT-116 cells. Kind of assay: 3D transmission electron tomography of lysosomes. The class given is cell-based. The text has this:
The 3D reconstruction was loaded into the Avizo 3D Visualization software to reveal lysosomal structure through volume rendering and segmentation. FIGS. 50B-50C show increased autophagic vesicles (yellow) and increased lysosomal cargo (green).
(FIG. 50A & FIG. 50B & FIG. 50C).

For a further assay, the system named is cancer cells. Kind of assay: Vacuoles formation and cell death with necroptosis inhibitor necrostatin-1. The class given is cell-based. The following applies: necrostatin-1 up to 30 μM. As for the experimental part: BAPT-27 induces a type of death that is also independent of necrosis or necroptosis. The vacuoles formation and cell death was not inhibited by the addition of necrostatin-1, a necroptosis inhibitor, even at high concentrations (up to 30 μM).
BAPT-27 induces a type of death that is independent of necrosis or necroptosis. The vacuoles formation and cell death was not inhibited by the addition of necrostatin-1, a necroptosis inhibitor, even at high concentrations (up to 30 μM). (FIG. 44).

The test system of the next assay is macropinocytosis. Briefly: Lucifer yellow dye uptake (macropinocytosis). The following applies: 10 μM, 6 h treatment. It is filed as cell-based. The text has this:
BAPT-27 induced vacuoles that combine both methuosis and autophagy characteristics. […] The author mechanism involved in this non-conventional cell death mechanism is a special type of […] that has been termed methuosis. The treatment of cells by BAPT-27 caused the displacement of the cytoplasm by vacuoles derived from macropinosomes. At early time points, the vacuoles are small in size. The small vacuoles then increase in number, and then fuse with each other over time forming larger vacuoles that cover the whole cytoplasm. Eventually, this causes a disturbance of the cell membrane and burst of the cells, release of fluids, detachment of cell, and death. […] Accordingly, alteration in both autophagic and methuosis mechanisms are involved in the BAPT-27 cell death process.

Assay [2] has as its system HCT15 colon cancer cell line. Kind of assay: Morphological assessment of vacuolization. The class given is cell-based. The text has this:
(§2) The methuophagy inducing activities of BAPT-27 were also prominent in different colon cancer cell lines with different genetic profiles. […] (FIG. 42). However, the vacuoles formation was not prominent in normal epithelial colon cells (CRL-1459). (FIG. 42).

A further assay has as its system HCT-116 (colon cancer). Briefly: Morphological assessment of vacuolization. The class given is cell-based.
Text: as §2

Assay [3] has as its system HT29 colon cancer cell line. Briefly: Morphological assessment of vacuolization. It is filed as cell-based.
Text: as §2

Assay [4] relates to NSCLC cells resistant to apoptosis. Briefly: Activity in apoptosis-resistant NSCLC cells. It is filed as cell-based. From the text:
(FIG. 46). NSCLC cells resistant to apoptosis are also sensitive to the activities of BAPT-27.

Assay [5] concerns Transcription factor EB (TFEB)— associated lysosomal and autophagy genes. Kind of assay: RNA-seq analysis of TFEB-associated lysosomal and autophagy genes. The class given is cell-based. The following applies: HCT-116, 10 μM, 6 h. From the text: Autophagosome and lysosomal homeostasis is governed by transcription factor EB (TFEB)—mTOR signaling pathways (TFEB-mTOR pathway). […] (FIG. 51A & FIG. 51B & FIG. 51C).

Assay [6] has as its system HCT116 colon cancer cells. Kind of assay: Colony formation assay. The class given is cell-based. On the procedure: The cytotoxic efficacy of BAPT-27 was also confirmed by colony formation assay. Colony formation assay was used to determine the long-term capacities of the compound to inhibit cell proliferation and viability. The cells were treated for 2 or 3 days and allowed to grow in compound free medium for up to two weeks. […] It was also observed that a higher concentration of BAPT-27 was needed to reduce the colony formation at 48 h compared to longer treatment (72 h). (FIG. 28A).
The cells were treated for 2 or 3 days and allowed to grow in compound free medium for up to two weeks. […] The number of colonies formed/concentration at each time point is shown in the bar graph in FIG. 28B.

T2 sequence (P53779 whole entry): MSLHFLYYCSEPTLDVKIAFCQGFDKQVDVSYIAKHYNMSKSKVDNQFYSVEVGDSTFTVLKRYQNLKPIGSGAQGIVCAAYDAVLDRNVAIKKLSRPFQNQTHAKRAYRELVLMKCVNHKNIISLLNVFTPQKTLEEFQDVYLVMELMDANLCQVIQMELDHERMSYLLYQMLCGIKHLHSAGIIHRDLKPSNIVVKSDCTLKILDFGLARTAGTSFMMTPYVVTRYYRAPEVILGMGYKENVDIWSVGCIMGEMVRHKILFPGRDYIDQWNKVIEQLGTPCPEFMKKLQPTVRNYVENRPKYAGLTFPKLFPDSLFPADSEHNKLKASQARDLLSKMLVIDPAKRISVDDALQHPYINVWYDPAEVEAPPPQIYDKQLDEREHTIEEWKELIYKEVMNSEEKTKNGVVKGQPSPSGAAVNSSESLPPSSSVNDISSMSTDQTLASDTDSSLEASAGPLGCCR
T4 sequence (P45983 whole entry): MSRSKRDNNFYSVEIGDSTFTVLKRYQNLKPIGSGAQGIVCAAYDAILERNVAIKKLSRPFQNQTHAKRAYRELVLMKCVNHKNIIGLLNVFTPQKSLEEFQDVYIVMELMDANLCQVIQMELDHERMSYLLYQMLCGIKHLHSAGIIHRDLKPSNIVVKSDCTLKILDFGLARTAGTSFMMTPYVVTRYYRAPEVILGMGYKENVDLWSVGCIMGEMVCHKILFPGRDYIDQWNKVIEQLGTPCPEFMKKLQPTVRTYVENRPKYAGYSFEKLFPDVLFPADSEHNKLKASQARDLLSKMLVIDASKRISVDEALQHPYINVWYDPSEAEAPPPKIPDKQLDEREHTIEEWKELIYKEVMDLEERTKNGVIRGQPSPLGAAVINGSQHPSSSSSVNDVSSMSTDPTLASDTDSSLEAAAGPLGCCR

With `Sc1nnc(-c2ccncc2)n1/N=C/c1c[nH]c2ccccc12` [BAPT-27, 4-(((1H-Indol-3-Yl)Methylene)Amino)-5-(Pyridin-4-Yl)-4H-1,2,4-Triazole-3-Thiol], the inhibitory potency result is recorded as “shows inhibitory potency” against ABL1 T315I; “shows inhibitory potency” at JNK3; “shows inhibitory potency” on DYRK1A; “shows inhibitory potency” at JNK1; “shows inhibitory potency” with FLT3(ITD, D835V); “shows inhibitory potency” in [1]. The inhibitory potency result against JNK2 and at FLT3(D835V) was “shows inhibitory potency” throughout. Also, the “autophagic vesicles and lysosomal cargo” value in the assay on HCT-116 cells is “increased autophagic vesicles and increased lysosomal cargo”. The lysosomal size entry in the assay on HCT-116 cells is reported as “significant increase in lysosomal size”. Also, the “inhibition of vacuoles formation and cell death by necrostatin-1” value in the assay with cancer cells is “not inhibited”. For the same compound, the “Lucifer yellow dye in formed vacuoles” value in the assay on macropinocytosis is reported as “Extensive accumulation”. Moreover, the vacuolization entry (in assay [2]; in the assay with HCT-116 (colon cancer); in assay [3]) was “extensive vacuoles formation” throughout. Besides, in [4], the “sensitivity to the activities of BAPT-27” value is on record as “sensitive”. Also, in assay [5], the “expression of TFEB-associated lysosomal and autophagy genes” value was “upregulated”. In addition, in assay [6] (HCT116, 48 h and 72 h, especially after 72 h treatment), the “colonies number and size” value is “significant inhibition in the colonies number and size”. Moreover, the colony formation entry in assay [6] (treated two and three days, then compound free medium up to two weeks) was “significantly inhibited colony formation”.
